Measurements: patent US10287291B2, “Seco-cyclopropapyrroloindole compounds, antibody-drug conjugates thereof, and methods of making and use” (priority 2016, dated 2019)
Read-outs that look alike come from different tables or passages of the source.

How the values were obtained:
[1] = test system: N87 (human gastric (stomach) cancer cell line); assay: 72 hr ATP luminescence proliferation inhibition, N87; format: cell-based; details: read-out: Proliferation Inhibition of Cancer Cells EC50, N87
Procedure: (§1) Proliferation inhibition was measured using a 72 hr ATP luminescence assay (Cheng et al., U.S. Pat. No. 8,394,922 B2 (2013)).
(§2) Proliferation inhibition was measured against: (a) H226 (human mesothelioma (lung) cancer cell line); (b) N87 (human gastric (stomach) cancer cell line); (c) OVCAR3 (human ovarian cancer cell line); (d) HCT116 (human colon cancer cell line); and (e) HCT116/VM46 (multidrug and paclitaxel resistant subline of HCT116).

[2] = test system: H226 (human mesothelioma (lung) cancer cell line); assay: 72 hr ATP luminescence proliferation inhibition, H226; format: cell-based
Procedure: as §1, §2

[3] = test system: OVCAR3 (human ovarian cancer cell line); assay: 72 hr ATP luminescence proliferation inhibition, OVCAR3; format: cell-based
Procedure: as §1, §2

[4] = test system: HCT116 (human colon cancer cell line); assay: 72 hr ATP luminescence proliferation inhibition, HCT116; format: cell-based
Procedure: as §1, §2

[5] = test system: HCT116/VM46 (multidrug and paclitaxel resistant subline of HCT116); assay: 72 hr ATP luminescence proliferation inhibition, HCT116/VM46; format: cell-based, human; details: read-out: Proliferation Inhibition of Cancer Cells EC50, HCT116/VM46
Procedure: as §1, §2

[6] = Homo sapiens, NCI-H226, read-out: Proliferation Inhibition of Cancer Cells EC50, H226
[7] = Homo sapiens, OVCAR-3, read-out: Proliferation Inhibition of Cancer Cells EC50, OVCAR3
[8] = Homo sapiens, HCT-116, read-out: Proliferation Inhibition of Cancer Cells EC50, HCT116
[9] = Homo sapiens, HCT-116/VM46, HCT116/VM46 cell line
[10] = read-out: Proliferation Inhibition of Cancer Cells EC50, OVCAR3
[11] = read-out: Proliferation Inhibition of Cancer Cells EC50, HCT116
[12] = read-out: Proliferation Inhibition of Cancer Cells EC50, H226

Structure (SMILES) | EC50 ([1]; Homo sapiens) [nM] | EC50 [2, 6] [nM] | EC50 [3, 7] [nM] | EC50 [4, 8] [nM] | EC50 [5, 9] [nM] | EC50 [3, 10] [nM] | EC50 [1] [nM] | EC50 [4, 11] [nM] | EC50 [2, 12] [nM] | EC50 ([5]; HCT116/VM46 cell line) [nM]
COCCOc1ccc2[nH]c(C(=O)N3C[C@@H](CCl)c4c3cc(O)c3[nH]c(C(=O)N5CCOCC5)cc43)cc2c1 [Ia-01] | 0.007 | 0.014 | – | – | – | – | – | – | – | –
CCOc1ccc2[nH]c(C(=O)N3C[C@@H](CCl)c4c3cc(O)c3[nH]c(C(=O)N5CCOCC5)cc43)cc2c1 [Ia-02] | 0.097 | 0.042 | 0.048 | 0.045 | 0.045 | – | – | – | – | –
CCCOc1ccc2[nH]c(C(=O)N3C[C@@H](CCl)c4c3cc(O)c3[nH]c(C(=O)N5CCOCC5)cc43)cc2c1 [Ia-03] | 0.048 | 0.038 | 0.026 | 0.034 | 0.034 | – | – | – | – | –
O=C(c1cc2c3c(cc(O)c2[nH]1)N(C(=O)c1cc2cc(OCC4CC4)ccc2[nH]1)C[C@H]3CCl)N1CCOCC1 [Ia-04] | 0.15 | 0.11 | 0.11 | 0.12 | 0.12 | – | – | – | – | –
CC(C)COc1ccc2[nH]c(C(=O)N3C[C@@H](CCl)c4c3cc(O)c3[nH]c(C(=O)N5CCOCC5)cc43)cc2c1 [Ia-05] | 0.21 | 0.18 | 0.076 | 0.17 | 0.17 | – | – | – | – | –
O=C(c1cc2c3c(cc(O)c2[nH]1)N(C(=O)c1cc2cc(OC4CCC4)ccc2[nH]1)C[C@H]3CCl)N1CCOCC1 [Ia-06] | – | – | – | – | – | 0.32 | 0.56 | 0.36 | 0.47 | 0.36
O=C(c1cc2c3c(cc(O)c2[nH]1)N(C(=O)c1cc2cc(OCCC4CC4)ccc2[nH]1)C[C@H]3CCl)N1CCOCC1 [Ia-07] | 0.81 | 0.72 | 0.41 | 0.67 | 0.67 | – | – | – | – | –
O=C(c1cc2c3c(cc(O)c2[nH]1)N(C(=O)c1cc2cc(OCCO)ccc2[nH]1)C[C@H]3CCl)N1CCOCC1 [Ia-08] | 1.3 | 3.4 | 2.1 | – | – | – | – | – | – | –
COCCCOc1ccc2[nH]c(C(=O)N3C[C@@H](CCl)c4c3cc(O)c3[nH]c(C(=O)N5CCOCC5)cc43)cc2c1 [Ia-09] | 0.016 | 0.055 | 0.025 | – | – | – | – | – | – | –
O=C(c1cc2c3c(cc(O)c2[nH]1)N(C(=O)c1cc2cc(OCC4CCCCC4)ccc2[nH]1)C[C@H]3CCl)N1CCOCC1 [Ia-10] | 0.15 | 0.25 | – | – | – | – | – | – | – | –
COc1ccc2[nH]c(C(=O)N3C[C@@H](CCl)c4c3cc(O)c3[nH]c(C(=O)N5CCOCC5)cc43)cc2c1 [Ia-11] | 1.2 | 1 | 0.52 | 0.58 | 0.92 | – | – | – | – | –
O=C(c1cc2c3c(cc(O)c2[nH]1)N(C(=O)c1cc2cc(-c4ccccc4)ccc2[nH]1)C[C@H]3CCl)N1CCOCC1 [Ia-12] | 1.3 | 0.53 | 0.54 | 0.4 | 0.29 | – | – | – | – | –
CC(C)Oc1ccc2[nH]c(C(=O)N3C[C@@H](CCl)c4c3cc(O)c3[nH]c(C(=O)N5CCOCC5)cc43)cc2c1 [Ia-13] | 0.48 | 0.32 | 0.12 | 0.18 | 0.24 | – | – | – | – | –
O=C(c1cc2c3c(cc(O)c2[nH]1)N(C(=O)c1cc2cc(OC4CCOCC4)ccc2[nH]1)C[C@H]3CCl)N1CCOCC1 [Ia-14] | 0.36 | 0.43 | 0.1 | 0.26 | 0.77 | – | – | – | – | –
O=C(c1cc2c3c(cc(O)c2[nH]1)N(C(=O)c1cc2cc(OC4CCCC4)ccc2[nH]1)C[C@H]3CCl)N1CCOCC1 [Ia-15] | 0.32 | 0.28 | 0.21 | 0.22 | 0.26 | – | – | – | – | –
CN(C)CCOc1ccc2[nH]c(C(=O)N3C[C@@H](CCl)c4c3cc(O)c3[nH]c(C(=O)N5CCOCC5)cc43)cc2c1 [Ia-16] | 0.5 | 0.4 | – | – | – | – | – | – | – | –
CNCCOc1ccc2[nH]c(C(=O)N3C[C@@H](CCl)c4c3cc(O)c3[nH]c(C(=O)N5CCOCC5)cc43)cc2c1 [Ia-17] | – | – | – | – | – | 18 | 36 | 19 | 1.6 | 25
NCCOc1ccc2[nH]c(C(=O)N3C[C@@H](CCl)c4c3cc(O)c3[nH]c(C(=O)N5CCOCC5)cc43)cc2c1 [Ia-18] | 48 | 32 | 12 | 25 | 19 | – | – | – | – | –

Structure (SMILES) | EC50 ([1]; Homo sapiens) [nM] | EC50 [2, 6] [nM] | EC50 [3, 7] [nM] | EC50 [4, 8] [nM] | EC50 [5, 9] [nM] | EC50 [3, 10] [nM] | EC50 [1] [nM] | EC50 [4, 11] [nM] | EC50 [2, 12] [nM] | EC50 ([5]; HCT116/VM46 cell line) [nM]
Nc1ccc2[nH]c(C(=O)N3C[C@@H](CCl)c4c3cc(O)c3[nH]c(C(=O)N5CCOCC5)cc43)cc2c1 [Ia-19] | 3.1 | 4.2 | 1.1 | 3.2 | 3.5 | – | – | – | – | –
COc1ccc2[nH]c(C(=O)N3C[C@@H](CCl)c4c3cc(O)c3[nH]c(C(=O)N5CCN(C)CC5)cc43)cc2c1 [Ia-20] | – | – | – | – | – | 1.5 | 3.5 | 1.9 | 6.5 | 2.6
CNCCN(C)C(=O)c1cc2c3c(cc(O)c2[nH]1)N(C(=O)c1cc2cc(OC)ccc2[nH]1)C[C@H]3CCl [Ia-21] | – | – | – | – | – | 1.2 | 2.2 | 0.85 | 0.99 | 0.5
COc1ccc2[nH]c(C(=O)N3C[C@@H](CCl)c4c3cc(O)c3[nH]c(C(=O)NCCOCCO)cc43)cc2c1 [Ia-22] | – | – | – | – | – | 1.1 | 1.9 | 1.2 | 5.1 | 1.2
CC[C@@H](CO)NC(=O)c1cc2c3c(cc(O)c2[nH]1)N(C(=O)c1cc2cc(OC)ccc2[nH]1)C[C@H]3CCl [Ia-23] | – | – | – | – | – | 1.1 | 2.6 | 0.9 | 7.5 | 1.9
CNCCN(CCOCCO)C(=O)c1cc2c3c(cc(O)c2[nH]1)N(C(=O)c1cc2cc(OC)ccc2[nH]1)C[C@H]3CCl [Ia-24] | – | – | – | – | – | 250 | – | 250 | 250 | 250
Nc1ccc2[nH]c(C(=O)N3C[C@@H](CCl)c4c3cc(O)c3[nH]c(C(=O)N5CCNCC5)cc43)cc2c1 [Ia-25] | – | – | – | – | – | 22 | 38 | 13 | 23 | 24
CN1CCN(C(=O)c2cc3c4c(cc(O)c3[nH]2)N(C(=O)c2cc3cc(N)ccc3[nH]2)C[C@H]4CCl)CC1 [Ia-26] | – | – | – | – | – | 2.7 | – | 4.1 | 9.5 | 12
CN(C)CCOc1ccc2[nH]c(C(=O)N3C[C@@H](CCl)c4c3cc(O)c3[nH]c(C(=O)Nc5ccc(O)cc5)cc43)cc2c1 [Ia-27] | – | – | – | – | – | – | 3.5 | – | 1.4 | –
CCCOc1ccc2[nH]c(C(=O)N3C[C@@H](CCl)c4c3cc(O)c3[nH]c(C(=O)N5CCCOCC5)cc43)cc2c1 [Ia-28] | – | – | – | – | – | 0.058 | 0.066 | 0.079 | 0.3 | 0.09
COCCOc1ccc2[nH]c(C(=O)N3C[C@@H](CCl)c4c3cc(O)c3[nH]c(C(=O)Nc5ccc(N)cc5)cc43)cc2c1 [Ia-29] | – | – | – | – | – | – | 0.26 | – | 0.63 | –
COc1cc2cc(C(=O)N3C[C@@H](CCl)c4c3cc(O)c3[nH]c(C(=O)N5CCOCC5)cc43)[nH]c2c(OC)c1OC [Ia-30] | 0.045 | 0.018 | 0.032 | 0.033 | 0.097 | – | – | – | – | –
CC(C)CCOc1ccc2[nH]c(C(=O)N3C[C@@H](CCl)c4c3cc(O)c3[nH]c(C(=O)N5CCOCC5)cc43)cc2c1 [Ia-31] | – | – | – | – | – | 0.53 | 0.43 | 0.62 | 0.24 | 0.86
O=C(Nc1ccc2nc(C(=O)N3C[C@@H](CCl)c4c3cc(O)c3[nH]c(C(=O)N5CCOCC5)cc43)cn2c1)c1ccc(O)cc1 [Ib-01] | – | – | – | – | – | 2.8 | 3.6 | 3.2 | 2.39 | 3.5
COCOc1ccc(C(=O)Nc2ccc3nc(C(=O)N4C[C@@H](CCl)c5c4cc(O)c4[nH]c(C(=O)N6CCOCC6)cc54)cn3c2)cc1 [Ib-02] | – | – | – | – | – | 0.53 | 0.96 | 0.64 | 1 | 1.9
Nc1ccc2[nH]c(C(=O)Nc3ccc4[nH]c(C(=O)N5C[C@@H](CCl)c6c5cc(O)c5[nH]c(C(=O)N7CCOCC7)cc65)cc4c3)cc2c1 [Ic-01] | 1.5 | 0.91 | 0.89 | 0.43 | 0.75 | – | – | – | – | –
O=C(Nc1ccc2[nH]c(C(=O)N3C[C@@H](CCl)c4c3cc(O)c3[nH]c(C(=O)N5CCOCC5)cc43)cc2c1)c1ccc(O)cc1 [Id-01] | 2.3 | – | 1.1 | 0.93 | – | – | – | – | – | –
Nc1ccc(C(=O)Nc2ccc3[nH]c(C(=O)N4C[C@@H](CCl)c5c4cc(O)c4[nH]c(C(=O)N6CCOCC6)cc54)cc3c2)cc1 [Id-02] | 1.4 | 1.2 | – | – | – | – | – | – | – | –
